In brackets after ≈: the same amount, converted by molar mass.

This is an account of results in patent US8288374B2, “Medicinal composition containing benzo[a]phenoxazine compound as the active ingredient for prevention or treatment of protozoal disease” (Hoshi University, priority 2008, dated 2012).

Data set [1] relates to Leishmania donovani (MHOM/ET/67/L82 strain). The data set can be described thus: Leishmania protozoa growth inhibition screening test. The data set is classed as cell-based. To be noted: Leishmania donovani; Table 5; amastigotes, 72 hours, Alamar Blue; read-out: 50% Growth inhibition concentration Leishmania donovani. The procedure:
In the present experiment, Leishmania donovani (MHOM/ET/67/L82 strain) was used. Protozoa was subcultured in Syrian Golden hamster, from which an amastigote was obtained. In the experiment, SM medium supplemented with 10% heat-treated bovine fetal serum was used, which was adjusted to pH 5.4, and cultured in an atmosphere of 5% CO2 concentration, at 37° C.
The compounds of the present invention to be used in the present test and the positive control drug (miltefosine) were dissolved in DMSO to make a test solution of a predetermined concentration.
After adding a medium containing a predetermined number of protozoa to wells of a 96-well culture'plate and pre-treating, concentration of the amastigote was measured with CASY cell analysis system (Scharfe, Germany). Then, test solution containing a drug of a predetermined concentration or a drug-free DMSO was added. Test solutions were taken by duplicates.
After culturing the culture plate for 72 hours in an incubator, growth inhibition activity was tested. Test was conducted as follows. 10 μL of Alamar Blue aqueous solution was added to each well, and the resultant was further cultured for 2 hours. Next, the culture plate was placed on a fluorescent micro-plate reader (Spectramax Gemeni XS; US Molecular Device), radiated at an excited wavelength of 536 nm. Fluorescent intensity was measured at 588 nm, and infection rate of leishmania protozoa of the test solution added group and control was calculated.
(§1) Growth inhibition rate (%)={1−(b−a)/(c−a)}×100 • a: early infection rate • b: infection rate when test solution was added • c: infection rate of the control

In data set [2] the test system is Plasmodium falciparum K1. Briefly: Chloroquine resistant-Plasmodium falciparum growth inhibition screening test. To be noted: EC50 against rat L6 cells / EC50 against P. falciparum K1. The data set is classed as cell-based. The procedure:
In the present experiment, protozoa of plasmodium falsiparum K1 strain was used. RPMI-1640 medium sterilized with a filter to which human serum was added to be 5%, was used in the experiment. Malarial parasites were cultured under 3% O2 concentration, 4% CO2 concentration, 93% N2 concentration, and at a temperature of 37° C.
The compounds of the present invention to be used in the present test and the positive control drug (chloroquine) were dissolved in DMSO to make a test solution of a predetermined concentration. Cultured malaria parasite infected-erythrocytes were collected by centrifugation, and diluted with non-infected erythrocyte so that the early infection rate was 0.15%. Hematocrit level at that time was 2.5%.
200 μL of malaria infected solution was added to wells of a 96-well culture plate, and adjusted by adding a test solution containing drug of a predetermined concentration or a drug-free DMSO. Test solutions were taken by duplicates.
[…] […] Radiation intensity was measured with a beta plate liquid scintillation counter (Wallac), and malarial parasite infection rates of the test solution added group and the control group were calculated.
Growth inhibition rate (%)={1−(b−a)/(c−a)}×100 • a: early infection rate • b: infection rate when test solution was added • c: infection rate of the control 3. Growth Inhibition Test of Rat L6 Cells
Antimalarial activity of a sample was estimated from EC50 values of the sample against chloroquine resistant-Plasmodium falciparum and rat L6 cells. […] It means that the larger the value of the selection toxity, the less the risk of the side effect is. Chemotherapy index=(EC50 value of a sample against rat L6 cells)/(EC50 value of a sample against chloroquine resistant-Plasmodium falsiparum)

For data set [3], the system named is Rat L6 cells. Briefly: Growth inhibition test of rat L6 cells. The data set is classed as cell-based. The settings on record: Table 1, 72 hours, Alamar Blue, read-out: 50% Growth inhibition concentration Cytoxicity L6. The procedure:
Rat derived-L6 cells (rat skeletal myoblast cell) were used. A medium, RPMI1640 medium was supplemented so that L-glutamin (200 mM) is 1%, and fetal bovine serum 10%, and the medium was cultured under CO2 concentration 5%, at 37° C.
The compounds of the present invention and the control drugs to be used in the test were dissolved in DMSO, to make a test solution of a predetermined concentration.
Pre-culture was conducted and medium containing cells which have entered the logarithmic growth phase was taken to wells of a 96-well culture plate. Then, a test solution containing drug of a predetermined concentration or a drug-free DMSO was added. Test solutions were taken by duplicates.
Culture plate was cultured for 72 hours in an incubator, to test the growth inhibition activity. Test was conducted as follows. 10 μL of Alamar Blue aqueous solution was added to each well, and the resultant was further cultured for 2 hours. Next, the culture plate was placed on a fluorescent micro-plate reader (Spectramax Gemeni XS; US Molecular Device), radiated at an excited wavelength of 536 nm. Fluorescent intensity was measured at 588 nm, and residual rate of L6 cells of the test solution added group, and that of the control was calculated.
Growth inhibition rate (%)={(C−A)/(B−A)}×100 • A: Primary cell count • B: cell count of control, 3 days after • C: cell count of wells added with a sample, 3 days after 4. Determination of Drug Efficacy Against Chloroquine Resistant-Plasmodium
A general note: Alamar Blue is a resazurin reagent that responds to reducing activity.

Data set [4] has as its system Trypanosoma cruzi (Tulahuen C2C4 strain). The data set can be described thus: American trypanosome protozoa growth inhibition screening test. The data set is classed as cell-based. The settings on record: Trypanosoma cruzi, Table 5, in rat L6 cells, 96 hours, CPRG/Nonidet, read-out: 50% Growth inhibition concentration Trypanosoma cruzi. The method, then:
In the present experiment, amastigote and trypomastigote infected with rat L6 cells of protozoa of Trypanosoma cruzi (Tulahuen C2C4 starin) were used. As medium used in the test, RPMI 1640 medium containing L6 cells was supplemented so that L-glutamine (200 mM) become 1%, fetal bovine serum becomes 10%, which was cultured under CO2 concentration 5%, at 37° C.
The compounds of the present invention to be used in the present test and the positive control drug (benznidazole) were dissolved in DMSO to make a test solution of a predetermined concentration.
A medium containing 5×10^3 protozoa was added to wells of a 96-well culture plate, and pre-cultured for 48 hours. After replacing the medium, test solution containing drug of a predetermined concentration or a drug-free DMSO was added. Test solutions were taken by duplicates.
After culturing the culture plate in an incubator for 96 hours, growth inhibition activity was tested. Test was conducted as follows. 50 μL of CPRG/Nonidet was added to each well, and allowed to rest for 2 to 6 hours. Next, the culture plate was placed on a fluorescent micro-plate reader. The absorbance was measured at 540 nm, and the trypanosome infection rate of the test solution added group and control group were calculated.
as §1

The subject of data set [5] is Trypanosoma brucei rhodesiense (STIB 900 strain). Briefly: African trypanosome protozoa growth inhibition screening test. The data set is classed as cell-based. To be noted: Table 5, 72 hours, Alamar Blue, read-out: 50% Growth inhibition concentration Trypanosoma brucei rhod. The method, then: In the present experiment, protozoa of Tripanosoma brucei rhodensiense (STIB 900 Strain), a trypomastigote living in blood stream, was used. The medium used in the experiment was a MEM medium which was sterilized with a filter and supplemented with 25 mM N-2-hydroxyeihylpiperazine-2-ethansulfonic acid (HEPES), 1 g/L glucose, 1% MEM non-essential amino acid, 0.2 mM 2-mercaptoethanol, 2 mM sodium pyruvate, 0.1 mM hypoxanthine, and 15% heat-treated horse serum. The protozoa was cultured in an atmosphere of CO2 concentration 5%, at a temperature of 37° C.
The compounds of the present invention to be used in the present test and the positive control drug (melarsoprol) were dissolved in dimethylsulfoxide (DMSO) to make a test solution of a predetermined concentration.
A medium containing 8×10^3 protozoa, and a test solution containing a drug of a predetermined concentration of a drug-free DMSO were added to wells of a 96-well culture plate, and subsequently, medium was added so that the amount in each well becomes 100 μL. Test solutions were taken by duplicates.
After culturing the culture plate for 72 hours in an incubator, growth inhibition activity was tested. Test was conducted as follows. 10 μL of Alamar Blue aqueous solution was added to each well, and the resultant was further cultured for 2 hours. Next, the culture plate was placed on a fluorescent micro-plate reader (Spectramax Gemeni XS; US Molecular Device), radiated at an excited wavelength of 536 nm. Fluorescent intensity was measured at 588 nm, to calculate the trypanosome protozoa infected rate of the test solution added-group, and of the control group.
as §1

Broadly, the melting point is the temperature, or range, at which the solid turns liquid. As for `CCN(CC)c1ccc2nc3c4ccc(Br)cc4c(=Nc4ccncc4)cc-3oc2c1` [Compound 1G, 3-Bromo-N,N-diethyl-5-(pyridin-4-ylimino)-5H-benzo[a]phenoxazin-9-amine], the melting point fell in the range of 269 to 271 °C. Moreover, the EC50 in data set [1] amounted to 19.1 µg/mL (≈ 40.4 µM). The same molecule yielded a Selective toxicity in data set [2] of over 18000. Moreover, in data set [3], the EC50 is over 90 µg/mL. For the same molecule, the EC50 in data set [4] is over 30 µg/mL. Besides, the EC50 in data set [5] turned out to be 61 µg/mL (≈ 129 µM).
`CCN(CC)c1ccc2nc3c4ccccc4c(=Nc4nc5ccc(Cl)cc5s4)cc-3oc2c1` [Compound 1I, 5-(6-Chlorobenzo[d]thiazol-2-ylimino)-N,N-diethyl-5H-benzo[a]phenoxazin-9-amine] came in with a melting point of 229 to 231 °C. Further, in data set [1], the EC50 came out at 19.6 µg/mL (≈ 40.5 µM). The same molecule showed a Selective toxicity in data set [2] of over 210. Further, the EC50 in data set [3] is over 90 µg/mL. The EC50 in data set [4] is over 30 µg/mL. The EC50 in data set [5] was 44.8 µg/mL (≈ 92.4 µM).
The molecule `CCN(CC)c1ccc2nc3c4ccccc4c(=Nc4cc(C)on4)cc-3oc2c1` [Compound 1J, N,N-Diethyl-5-(5-methylisoxazol-3-ylimino)-5H-benzo[a]phenoxazin-9-amine] registered a melting point of 195 to 196 °C. Besides, the EC50 in data set [1] was found to be 1.86 µg/mL (≈ 4.67 µM). In data set [2], this molecule returned a Selective toxicity of 7360. The EC50 in data set [3] came out at 36.8 µg/mL (≈ 92.4 µM). Also, the EC50 in data set [4] came to 21.8 µg/mL (≈ 54.8 µM). Also, the EC50 in data set [5] stood at 11.8 µg/mL (≈ 29.6 µM).
Molecule `CCN(CC)c1ccc2nc3c4ccccc4c(=Nc4ncc(Cl)cc4Cl)cc-3oc2c1` [Compound 1K, 5-(3,5-Dichloropyridin-2-ylimino)-N,N-diethyl-5H-benzo[a]phenoxazin-9-amine] yielded a melting point of 192 to 193 °C. Also, the EC50 in data set [1] was 8.13 µg/mL (≈ 17.5 µM). The molecule further came in with a Selective toxicity in data set [2] of 2866. The EC50 in data set [3] came out at 83.1 µg/mL (≈ 179 µM). Moreover, the EC50 in data set [4] is over 30 µg/mL. Further, the EC50 in data set [5] was 38.6 µg/mL (≈ 83.3 µM).
`CCN(CC)c1ccc2nc3c4ccccc4c(=Nc4ncccn4)cc-3oc2c1` [Compound 1L, N,N-Diethyl-5-(pyrimidin-2-ylimino)-5H-benzo[a]phenoxazin-9-amine] came in with a melting point of 208 to 210 °C. Moreover, in data set [1], the EC50 is 0.662 µg/mL (≈ 1.67 µM). The same molecule showed a Selective toxicity in data set [2] of 2700. Also, the EC50 in data set [3] amounted to 5.4 µg/mL (≈ 13.7 µM). Further, in data set [4], the EC50 was 1.78 µg/mL (≈ 4.5 µM). For the same molecule, the EC50 in data set [5] was determined as 0.804 µg/mL (≈ 2.03 µM).
The molecule `CCN(CC)c1ccc2nc3c4ccccc4c(=Nc4nc5ccc(OC)cc5s4)cc-3oc2c1` [Compound 1M, N,N-Diethyl-5-(6-methoxybenzo[d]thiazol-2-ylimino)-5H-benzo[a]phenoxazin-9-amine] registered a melting point of 197 to 198 °C. The EC50 in data set [1] came to 13.8 µg/mL (≈ 28.7 µM). Moreover, in data set [2], the Selective toxicity turned out to be 1492. Further, in data set [3], the EC50 came out at 80.6 µg/mL (≈ 168 µM). For the same molecule, the EC50 in data set [4] is over 30 µg/mL. Also, the EC50 in data set [5] was determined as 40 µg/mL (≈ 83.2 µM).
